Data as given in US9834514B2, “Antibiotic sensitivity-restoring and photosensitive agents” (New Mexico Tech Research Foundation, priority 2015, dated 2017).
In brackets after ≈: the same amount, converted by molar mass. Like-named read-outs stand apart in the source and are kept apart here.

What was measured:
[1] = tested on: MRSA (ATCC No. BAA-44; ATCC No. BAA-1717); assay: Light-activated killing (photodynamic therapy), colony counts; assay type: cell-based, S. aureus; details: for Light Toxicity: white light 2 minutes; for log reduction in the concentration of CFUs: MRSA, FIG. 7; for appearance of MRSA cells in SEM image: FIG. 4
Method: (§1) Bacterial media was inoculated with bacteria and incubated overnight. The bacterial cultures were diluted to 5×10^8 CFU/mL using a McFarland latex turbidity standard (0.5). Compound 1 was diluted with sterile DMSO, which was added to the cell suspension in a glass culture tube. The cells were then incubated for 30 minutes at 37° C. on a rotary shaking incubator at 150 rpm. 500 μL of the treated cell suspension was added to a well on a sterile ceramic drop plate. Non-coherent white light from a Lumacare™ LC-122 unit was used to irradiate the samples. The end of the light probe was placed 3 cm above the sample well, perpendicular to the surface of the sample, and light was applied for 2 minutes (15 seconds light, 15 seconds dark). 200 μL of the irradiated sample was transferred to a 96-well plastic microtiter plate, and five ten-fold dilutions were made in the media. 10 μL of each dilution was dripped onto an agar media plate and streaked down the plate by tilting the plate down. The agar plates were incubated at 37° C. overnight, and colony counts were performed to calculate the CFU/mL.
Dose-dependent effects of treating bacteria with compound 1 and irradiation with white light were assessed by treating 10^8 CFU/mL of cells with compound 1, followed by irradiation with white light for 2 minutes. Compound 1 was added at a specific concentration to 1 mL of a 10^8 CFU/mL suspension of the respective bacterial cells, and the cells were incubated at 37° C. for approximately 45 minutes on a rotary shaker at 150 rpm. 0.5 mL of the cell suspension was removed and placed into the wells of a sterile ceramic drop plate, and then the cells were irradiated with white light from a Lumacare™ LC 122A light source for 2 minutes at a distance of approximately 3 cm. The time and distance of the light application delivered about 85 J/cm^2 of 400-700 nm light to the sample. After being irradiated, ten-fold dilutions were made of each cell sample. The dilutions were drip-streaked onto a tryptic soy agar (TSA) plate and incubated at 37° C. for 18-24 hours. Enumeration of bacteria was determined from the dilution, which produced a drip-streak containing approximately 30-300 colonies. After counting the colonies, the CFU/mL was calculated by applying the respective dilution factor and a factor of 100 to account for the 10 μL of sample taken. Appropriate controls were prepared, including cells with no treatment, cells with only compound 1 added, and cells only treated with light.

[2] = tested on: MRSA; assay: Minimum bactericidal concentration (MBC) with and without white light; assay type: cell-based, S. aureus; details: Staphylococcus aureus, light or radiation study
Method: as §1, with “The bacterial” for “Bacterial”, “in” for “in a”, “tubes.” for “tube.”, “plate” for “plate,”, “was allowed to streak” for “streaked”, “overnight” for “overnight,”
TABLE 14 details the MBC values of compounds 1-6 against MRSA with and without irradiation with white light. Irradiation involved treatment with a LumaCare™ light source at 3 cm from media for 1 min.

[3] = tested on: Trypanosoma cruzi; assay: Light-activated killing of parasites (MTT IC50); assay type: cell-based
Method: Trypanosomes were cultured in LIT media+10% FBS. The compounds were added to create a dilution series and incubated with the trypanosomes for 1 hour. The trypanosomes were then irradiated with continuous white light for 2 minutes at a distance of 6.5 cm using a LumaCare™ light source.

[4] = tested on: A. baumannii; assay: Checkerboard assay (FICI); assay type: cell-based; details: with PMB
Method: (§2) Another method for determining synergy is a checkerboard assay. A checkerboard assay is performed whereby one of the test compounds is serially diluted horizontally across a plate, while the other test compound is serially diluted vertically down the plate. The perpendicular serial dilutions result in combinations of the compounds that range in concentrations from the highest to the lowest of each compound added. In the present study, the checkerboard assay method was adjusted by serially diluting one of the test compounds horizontally and adding the second drug to each well at a concentration of ¼ MIC. The 24-well microtiter plate was then incubated at 37° C. for 18-24 hours on a rotary shaker incubator at 150 rpm. After incubation, MTT reagent was added to each well at a 10% sample volume. Synergy was determined on the lowest concentration of the combined drugs, which produced no purple coloring. Calculation of synergy was determined by the Fractional Inhibitory Concentration Index (FICI): FICI=([Drug 1]Synergy/[Drug1]MIC)+([Drug 2]Synergy/[Drug 2]MIC). FICI≦0.5 is an indication of synergy.
(§3) TABLE 17 details the obtained FICI values for compound 1 in combination with varying antibiotics against MRSA, A. baumannii, and E. coli.

[5] = tested on: E. coli; assay: Checkerboard assay (FICI); assay type: cell-based; details: with PMB
Method: as §2, §3

[6] = tested on: E. coli; assay: MIC against E. coli; assay type: cell-based; details: Escherichia coli
Description: TABLE 18 details the obtained MIC values for cells treated with compound 1, light, PMB, and Polymyxin E (PME) against E. coli.

[7] = Stability of the formulation at 40° C. (dynamic light scattering); assay type: physicochemical; details: in DMSO
Method: The stability of the formulation was determined using dynamic light scattering (DLS) to measure the mean size and standard deviation, both of which remained consistent. The experiments were repeated after the indicated periods, and the outcome of compound 1 photodynamic therapy was essentially the same in terms of cell killing.

[8] = tested on: Gram-positive bacteria; assay: Bacterial patterning (chessboard mask) with light and compound 1; assay type: cell-based
Method: A chessboard mask was then placed on top of the agar plate. […] The agar plate was then inoculated with bacteria and incubated overnight at 37° C.

## Clc1ccc(/C=C/c2[nH]c3ccccc3c2/C=C/c2ccc(Cl)cc2)cc1 [Compound 1]
[1]; MRSA ATCC BAA-44, 0.1 μM, no light
  Dark Toxicity: 2.85 × 10^8 ± 8.05 × 10^7 CFU/mL
[1]; MRSA ATCC BAA-44, 0.1 μM
  Light Toxicity: 2.00 × 10^3 ± 4.00 × 10^2 CFU/mL
[1]; MRSA ATCC BAA-44, 0.5 μM, no light
  Dark Toxicity: 2.93 × 10^8 ± 2.14 × 10^7 CFU/mL
[1]; MRSA ATCC BAA-44, 0.5 μM
  Light Toxicity: 3.33 × 10^1 ± 5.77 × 10^1 CFU/mL
[1]; MRSA ATCC BAA-44, 1.0 μM, no light
  Dark Toxicity: 1.05 × 10^8 ± 9.07 × 10^6 CFU/mL
[1]; MRSA ATCC BAA-44, 1.0 μM
  Light Toxicity: None detected (<100 CFU/mL)
[1]; MRSA ATCC BAA-44, 5.1 μM, no light
  Dark Toxicity: 4.34 × 10^5 ± 5.04 × 10^5 CFU/mL
[1]; MRSA ATCC BAA-44, 5.1 μM
  Light Toxicity: None detected (<100 CFU/mL)
[1]; MRSA ATCC BAA-1717, 0.1 μM, no light
  Dark Toxicity: 5.10 × 10^7 ± 5.29 × 10^6 CFU/mL
[1]; MRSA ATCC BAA-1717, 0.1 μM
  Light Toxicity: 4.43 × 10^3 ± 1.33 × 10^3 CFU/mL
[1]; MRSA ATCC BAA-1717, 0.5 μM, no light
  Dark Toxicity: 4.03 × 10^6 ± 1.5 × 10^6 CFU/mL
[1]; MRSA ATCC BAA-1717, 0.5 μM
  Light Toxicity: 4.0 × 10^2 ± 3.61 × 10^2 CFU/mL
[1]; MRSA ATCC BAA-1717, 1.0 μM, no light
  Dark Toxicity: 1.06 × 10^6 ± 8.39 × 10^4 CFU/mL
[1]; MRSA ATCC BAA-1717, 1.0 μM
  Light Toxicity: None detected (<100 CFU/mL)
[1]; MRSA ATCC BAA-1717, 5.1 μM, no light
  Dark Toxicity: 7.53 × 10^5 ± 1.12 × 10^5 CFU/mL
[1]; MRSA ATCC BAA-1717, 5.1 μM
  Light Toxicity: None detected (<100 CFU/mL)
[1]; 1 μM
  log reduction in the concentration of CFUs: 1 log
[1]; 5 μM
  log reduction in the concentration of CFUs: 3 log
[1]; TABLE 6
  PDT: <1-log reduction
[1]; from 100,000,000 viable MRSA cells, 2 minutes of white light irradiation
  viable MRSA cells after photodynamic therapy: 0
[2]; 1 min, LumaCare light source at 3 cm from media for 1 min, read-out: MBC with irradiation
  MBC: 1 µM (≈ 0.39 µg/mL)
[2]; no irradiation, read-out: MBC in the dark
  MBC: 200 µM (≈ 78.1 µg/mL)
[3]; continuous white light 2 minutes, MTT 24 hours later, read-out: Compound + light IC50
  IC50: < 0.5 µM
[3]; no light, read-out: IC50
  IC50: > 100 µM
[4]
  FIC Index: 0.1
[5]
  FIC Index: 0.2
[6]
  MIC: > 200 µg/mL
[7]
  Stability at 40° C.: >2 months
[8]
  MIC: 400 µM (≈ 156 µg/mL)
[8]; agar with 20 μM compound 1, white light through chessboard mask, FIG. 5
  bacterial growth on irradiated agar plate: inhibition of bacterial growth in the illuminated parts of the agar plate

## Clc1ccc(/N=N/c2c[nH]c3ccccc23)cc1 [Compound 9]
[1]; compound 9 alone, no light
  appearance of MRSA cells in SEM image: undamaged
[1]; compound 9 at 25 uM and light (LumaCare)
  appearance of MRSA cells in SEM image: appear to have burst from the inside
